The source made the active and inactive calls. No cut-off for these calls is given here.

Data set [1] is described as follows: Drug metabolism in human HepG2 cells assessed as 2-(4-(4-hydroxy-3-iodophenoxy)-3,5-diiodophenyl)acetic acid formation at 10 uM incubated for 24 hrs by LC-MS analysis. Format: ADME, cell-based. Conditions: hepg2, 24 h.
Data set [2] has as its target T1, Peroxisome proliferator-activated receptor gamma (Homo sapiens) (UniProt P37231).
T1 sequence (whole entry): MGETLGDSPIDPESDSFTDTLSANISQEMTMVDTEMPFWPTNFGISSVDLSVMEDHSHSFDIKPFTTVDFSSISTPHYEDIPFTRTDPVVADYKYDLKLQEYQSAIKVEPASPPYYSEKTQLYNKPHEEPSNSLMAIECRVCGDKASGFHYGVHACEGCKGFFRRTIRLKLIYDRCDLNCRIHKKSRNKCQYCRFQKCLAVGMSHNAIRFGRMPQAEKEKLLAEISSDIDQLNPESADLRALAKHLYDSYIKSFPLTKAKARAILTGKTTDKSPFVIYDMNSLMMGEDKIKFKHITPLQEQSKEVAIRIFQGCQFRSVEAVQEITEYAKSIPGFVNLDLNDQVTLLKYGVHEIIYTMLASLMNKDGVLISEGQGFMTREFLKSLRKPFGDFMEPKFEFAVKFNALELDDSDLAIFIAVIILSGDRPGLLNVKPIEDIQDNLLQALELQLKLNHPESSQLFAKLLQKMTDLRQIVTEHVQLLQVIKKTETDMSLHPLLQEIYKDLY
Nature of the data set: Agonist activity at PPARgamma in human HepG2 cells assessed as induction of CD36 mRNA expression at 10 to 30 uM incubated for 8 hrs by qPCR analysis. Format: cell-based.

Data set [3] deals with HEK-293T. Kind of data set: Activation of renilla luciferase expressed in HEK293T cells at 15 uM incubated for 14 to 16 hrs by reporter gene assay. The class given is cell-based. Conditions: Renilla reniformis. A general note: Reporter assays use an easily measured gene product as a stand-in for the process of interest.
In data set [4] the target is T1, Peroxisome proliferator-activated receptor gamma (Homo sapiens). Nature of the data set: Agonist activity at PPARgamma in human HepG2 cells without THRA knockdown assessed as induction of CD36 expression at 1 uM incubated for 8 hrs in by Western blot analysis. Format: cell-based. (In general: In western blotting, separated proteins are transferred to a membrane and probed.)

Data set [5] has the same target. Nature of the data set: Agonist activity at PPARgamma in human HepG2 cells with THRB knockdown assessed as induction of CD36 expression at 1 uM incubated for 8 hrs in by Western blot analysis. Format: cell-based.
The target of data set [6] is T2, Peroxisome proliferator-activated receptor gamma (Mus musculus) (UniProt P37238).
T2 sequence (whole entry): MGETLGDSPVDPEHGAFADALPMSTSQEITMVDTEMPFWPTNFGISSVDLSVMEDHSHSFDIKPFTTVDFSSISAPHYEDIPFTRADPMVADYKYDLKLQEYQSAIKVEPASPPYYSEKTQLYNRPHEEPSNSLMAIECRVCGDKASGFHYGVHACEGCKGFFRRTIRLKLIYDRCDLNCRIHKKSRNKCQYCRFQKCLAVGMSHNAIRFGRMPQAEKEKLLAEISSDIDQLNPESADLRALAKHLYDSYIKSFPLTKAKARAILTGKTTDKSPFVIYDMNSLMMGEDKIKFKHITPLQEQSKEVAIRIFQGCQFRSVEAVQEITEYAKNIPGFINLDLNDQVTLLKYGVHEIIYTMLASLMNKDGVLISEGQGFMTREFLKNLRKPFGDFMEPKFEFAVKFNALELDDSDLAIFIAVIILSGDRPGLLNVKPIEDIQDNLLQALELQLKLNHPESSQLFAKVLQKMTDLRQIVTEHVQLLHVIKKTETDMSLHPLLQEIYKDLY
Kind of data set: Agonist activity at PPARgamma in mouse 3T3L1 adipocytes assessed as induction of CD36 mRNA expression at 1 uM by qRT-PCR analysis. The class given is cell-based. Conditions: 3T3-L1. On the technique in general: Real-time PCR tracks product formation cycle by cycle.

The target of data set [7] is T1, Peroxisome proliferator-activated receptor gamma (Homo sapiens). Nature of the data set: Agonist activity at PPARgamma in human HepG2 cells assessed as induction of CD36 mRNA expression at 0.03 to 1 uM incubated for 8 hrs by qPCR analysis. Format: cell-based.
Data set [8] deals with T2, Peroxisome proliferator-activated receptor gamma (Mus musculus). Kind of data set: Agonist activity at PPARgamma in mouse 3T3L1 adipocytes assessed as induction of adiponectin mRNA expression at 1 uM by qRT-PCR analysis. The class given is cell-based. Conditions: 3T3-L1.
For data set [9] the target is unchanged. Nature of the data set: Agonist activity at PPARgamma in mouse 3T3L1 assessed as induction of adipocytes differentiation by Oil Red O staining based assay. The class given is cell-based. Conditions: 3T3-L1.
The target in data set [10] is T3, Hepatocyte nuclear factor 4-alpha (Homo sapiens) (UniProt P41235).
T3 sequence (whole entry): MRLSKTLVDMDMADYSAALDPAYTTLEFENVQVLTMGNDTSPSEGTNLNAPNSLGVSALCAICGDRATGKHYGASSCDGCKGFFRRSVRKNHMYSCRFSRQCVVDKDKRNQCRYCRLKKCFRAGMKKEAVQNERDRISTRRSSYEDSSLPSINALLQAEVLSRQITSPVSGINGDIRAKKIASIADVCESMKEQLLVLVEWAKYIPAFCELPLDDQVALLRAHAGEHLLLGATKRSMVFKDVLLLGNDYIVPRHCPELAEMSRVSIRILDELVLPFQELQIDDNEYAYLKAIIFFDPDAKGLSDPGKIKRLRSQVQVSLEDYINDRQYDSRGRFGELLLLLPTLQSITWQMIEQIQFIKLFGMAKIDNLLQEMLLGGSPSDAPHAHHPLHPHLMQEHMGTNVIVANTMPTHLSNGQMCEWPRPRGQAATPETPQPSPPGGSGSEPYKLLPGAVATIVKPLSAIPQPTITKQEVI
Nature of the data set: Agonist activity at recombinant human pFA-CMV-fused HNF4alpha LBD expressed in HEK293T cells transfected with pFR-luciferase plasmid and pRL-SV40 plasmid at 1 uM incubated for 14 to 16 hrs by dual glo luciferase reporter gene assay. The class given is cell-based. The following applies: HEK-293T.

Data set [11] concerns the target T3, Hepatocyte nuclear factor 4-alpha (Homo sapiens). Kind of data set: Agonist activity at recombinant human pFA-CMV-fused HNF4alpha LBD expressed in HEK293T cells transfected with pFR-luciferase plasmid and pRL-SV40 plasmid at 0.001 to 0.3 uM incubated for 14 to 16 hrs by dual glo luciferase reporter gene assay. Conditions: HEK-293T. The class given is cell-based.

Data set [12] deals with T4, Thyroid hormone receptor beta (Homo sapiens, UniProt P10828).
T4 sequence (P10828 whole entry): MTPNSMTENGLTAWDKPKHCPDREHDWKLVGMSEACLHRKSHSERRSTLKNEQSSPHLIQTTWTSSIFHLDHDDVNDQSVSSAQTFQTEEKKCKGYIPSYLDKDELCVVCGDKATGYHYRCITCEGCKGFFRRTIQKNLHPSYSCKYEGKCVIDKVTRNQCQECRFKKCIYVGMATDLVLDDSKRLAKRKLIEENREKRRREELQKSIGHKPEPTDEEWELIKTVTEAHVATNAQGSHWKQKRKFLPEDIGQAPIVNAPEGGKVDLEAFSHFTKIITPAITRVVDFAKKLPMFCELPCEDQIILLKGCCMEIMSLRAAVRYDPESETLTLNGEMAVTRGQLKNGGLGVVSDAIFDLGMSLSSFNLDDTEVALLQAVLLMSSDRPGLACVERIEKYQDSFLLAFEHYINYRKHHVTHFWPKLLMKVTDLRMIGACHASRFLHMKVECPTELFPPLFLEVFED
Nature of the data set: Agonist activity at THRbeta (unknown origin) incubated for 14 to 16 hrs by dual glo luciferase reporter gene assay.

Data set [13] has as its system HEK-293T. Kind of data set: Activation of renilla luciferase expressed in HEK293T cells at 0.1 uM incubated for 14 to 16 hrs by reporter gene assay. Format: cell-based. Conditions: Renilla reniformis.
Data set [14] has as its target T1, Peroxisome proliferator-activated receptor gamma (Homo sapiens). Nature of the data set: Agonist activity at N-terminal GFP-fused PPARgamma LBD (unknown origin) assessed as biotin-labeled CBP recruitment incubated for 2 hrs by HT-FRET assay.

As for `N[C@@H](Cc1cc(I)c(Oc2cc(I)c(O)c(I)c2)c(I)c1)C(=O)O` [LEVOTHYROXINE], the Drug metabolism entry in [1] is reported as “Metabolite_Notdetected”. Further, in [2], the result was Active. Moreover, the outcome with HEK-293T [3] was inactive.

For the compound `O=C(O)Cc1cc(I)c(Oc2cc(I)c(O)c(I)c2)c(I)c1` [TETRAC], the outcome in data set [4], in [5], in data set [6], in data set [7], in [8] and in [10] was Active. The result in data set [14] was Active. Moreover, in data set [9], the Activity result was “Dose-dependent effect”. Besides, the outcome (in data set [11]; in the data set on HEK-293T [13]) was inactive. Moreover, in data set [12], the EC50 turned out to be 20 nM.

A word on the EC50: it is the midpoint of the concentration-response curve. A lower EC50 goes with greater potency.

(Values after ChEMBL document CHEMBL4627384, “l-Thyroxin and the Nonclassical Thyroid Hormone TETRAC Are Potent Activators of PPARγ” (J Med Chem, 2020).)
